Measured values from PMC11173508, “Pharmacokinetics and Tissue Distribution of Itampolin A following Intragastric and Intravenous Administration in Rats Using Ultra-High-Performance Liquid Chromatography–Tandem Mass Spectrometry” (Molecules, 2024).

Test: Stability of itampolin A in biological samples under different storage conditions
Type: physicochemical, rat
Details: for Stability, Autosampler 4 °C for 24 h / Stability, Long-Term (at −80 °C for 30 Days) / Stability, Short-Term (at Room Temperature for 4 h) / Stability, Three Freeze–Thaw Cycles: n = 5, in %
Experimental: The stability of itampolin A was investigated by analyzing five replicates of the samples at three QC levels (3, 40, and 1280 ng/mL) under different storage conditions: (1) 4 h exposure at room temperature, (2) 24 h storage in the autosampler at 4 °C, (3) three freeze–thaw cycles, and (4) storage at −80 °C for 30 days. The samples were considered stable if the average percentage concentration deviation was within 15% of the actual value.

COc1c(Br)cc(C[C@H](NC(=O)Cc2ccc(OCCCNC(C)=O)cc2)C(=O)NCCc2cc(Br)c(O)c(Br)c2)cc1Br [itampolin A, Itampolin A]
Stability, Autosampler 4 °C for 24 h (brain, spiked 3 ng/mL): 98.3 ± 5.8
Stability, Long-Term (at −80 °C for 30 Days) (brain, spiked 3 ng/mL): 94.3 ± 8.7
Stability, Short-Term (at Room Temperature for 4 h) (brain, spiked 3 ng/mL): 112.6 ± 3.9
Stability, Three Freeze–Thaw Cycles (brain, spiked 3 ng/mL): 99.5 ± 6.3
Stability, Autosampler 4 °C for 24 h (brain, spiked 40 ng/mL): 108.0 ± 4.0
Stability, Long-Term (at −80 °C for 30 Days) (brain, spiked 40 ng/mL): 95.0 ± 2.9
Stability, Short-Term (at Room Temperature for 4 h) (brain, spiked 40 ng/mL): 99.9 ± 10.9
Stability, Three Freeze–Thaw Cycles (brain, spiked 40 ng/mL): 93.7 ± 7.8
Stability, Autosampler 4 °C for 24 h (brain, spiked 1280 ng/mL): 96.8 ± 8.3
Stability, Long-Term (at −80 °C for 30 Days) (brain, spiked 1280 ng/mL): 94.6 ± 5.7
Stability, Short-Term (at Room Temperature for 4 h) (brain, spiked 1280 ng/mL): 99.7 ± 2.9
Stability, Three Freeze–Thaw Cycles (brain, spiked 1280 ng/mL): 104.3 ± 2.6
Stability, Autosampler 4 °C for 24 h (heart, spiked 3 ng/mL): 87.2 ± 7.2
Stability, Long-Term (at −80 °C for 30 Days) (heart, spiked 3 ng/mL): 103.3 ± 6.8
Stability, Short-Term (at Room Temperature for 4 h) (heart, spiked 3 ng/mL): 97.7 ± 3.6
Stability, Three Freeze–Thaw Cycles (heart, spiked 3 ng/mL): 94.3 ± 6.5
Stability, Autosampler 4 °C for 24 h (heart, spiked 40 ng/mL): 103.9 ± 3.5
Stability, Long-Term (at −80 °C for 30 Days) (heart, spiked 40 ng/mL): 97.4 ± 5.3
Stability, Short-Term (at Room Temperature for 4 h) (heart, spiked 40 ng/mL): 100.3 ± 2.6
Stability, Three Freeze–Thaw Cycles (heart, spiked 40 ng/mL): 108.3 ± 9.7
Stability, Autosampler 4 °C for 24 h (heart, spiked 1280 ng/mL): 94.0 ± 7.3
Stability, Long-Term (at −80 °C for 30 Days) (heart, spiked 1280 ng/mL): 95.3 ± 5.4
Stability, Short-Term (at Room Temperature for 4 h) (heart, spiked 1280 ng/mL): 89.3 ± 5.3
Stability, Three Freeze–Thaw Cycles (heart, spiked 1280 ng/mL): 98.9 ± 4.9
Stability, Autosampler 4 °C for 24 h (intestine, spiked 3 ng/mL): 99.5 ± 5.3
Stability, Long-Term (at −80 °C for 30 Days) (intestine, spiked 3 ng/mL): 96.3 ± 7.9
Stability, Short-Term (at Room Temperature for 4 h) (intestine, spiked 3 ng/mL): 100.1 ± 6.1
Stability, Three Freeze–Thaw Cycles (intestine, spiked 3 ng/mL): 108.7 ± 2.9
Stability, Autosampler 4 °C for 24 h (intestine, spiked 40 ng/mL): 106.4 ± 8.9
Stability, Long-Term (at −80 °C for 30 Days) (intestine, spiked 40 ng/mL): 85.9 ± 7.4
Stability, Short-Term (at Room Temperature for 4 h) (intestine, spiked 40 ng/mL): 101.3 ± 2.3
Stability, Three Freeze–Thaw Cycles (intestine, spiked 40 ng/mL): 98.3 ± 5.0
Stability, Autosampler 4 °C for 24 h (intestine, spiked 1280 ng/mL): 102.3 ± 4.1
Stability, Long-Term (at −80 °C for 30 Days) (intestine, spiked 1280 ng/mL): 89.0 ± 7.9
Stability, Short-Term (at Room Temperature for 4 h) (intestine, spiked 1280 ng/mL): 99.7 ± 3.3
Stability, Three Freeze–Thaw Cycles (intestine, spiked 1280 ng/mL): 107.5 ± 8.2
Stability, Autosampler 4 °C for 24 h (kidney, spiked 3 ng/mL): 93.0 ± 8.9
Stability, Long-Term (at −80 °C for 30 Days) (kidney, spiked 3 ng/mL): 89.1 ± 7.1
Stability, Short-Term (at Room Temperature for 4 h) (kidney, spiked 3 ng/mL): 98.6 ± 4.0
Stability, Three Freeze–Thaw Cycles (kidney, spiked 3 ng/mL): 97.1 ± 6.7
Stability, Autosampler 4 °C for 24 h (kidney, spiked 40 ng/mL): 100.7 ± 7.6
Stability, Long-Term (at −80 °C for 30 Days) (kidney, spiked 40 ng/mL): 97.3 ± 8.5
Stability, Short-Term (at Room Temperature for 4 h) (kidney, spiked 40 ng/mL): 106.8 ± 7.3
Stability, Three Freeze–Thaw Cycles (kidney, spiked 40 ng/mL): 98.4 ± 5.0
Stability, Autosampler 4 °C for 24 h (kidney, spiked 1280 ng/mL): 92.7 ± 4.2
Stability, Long-Term (at −80 °C for 30 Days) (kidney, spiked 1280 ng/mL): 110.4 ± 5.9
Stability, Short-Term (at Room Temperature for 4 h) (kidney, spiked 1280 ng/mL): 99.8 ± 8.1
Stability, Three Freeze–Thaw Cycles (kidney, spiked 1280 ng/mL): 98.8 ± 3.6
Stability, Autosampler 4 °C for 24 h (liver, spiked 3 ng/mL): 96.3 ± 8.2
Stability, Long-Term (at −80 °C for 30 Days) (liver, spiked 3 ng/mL): 93.7 ± 5.1
Stability, Short-Term (at Room Temperature for 4 h) (liver, spiked 3 ng/mL): 98.2 ± 7.5
Stability, Three Freeze–Thaw Cycles (liver, spiked 3 ng/mL): 103.3 ± 4.7
Stability, Autosampler 4 °C for 24 h (liver, spiked 40 ng/mL): 98.8 ± 4.8
Stability, Long-Term (at −80 °C for 30 Days) (liver, spiked 40 ng/mL): 87.1 ± 6.8
Stability, Short-Term (at Room Temperature for 4 h) (liver, spiked 40 ng/mL): 93.5 ± 2.5
Stability, Three Freeze–Thaw Cycles (liver, spiked 40 ng/mL): 96.4 ± 8.1
Stability, Autosampler 4 °C for 24 h (liver, spiked 1280 ng/mL): 113.6 ± 4.2
Stability, Long-Term (at −80 °C for 30 Days) (liver, spiked 1280 ng/mL): 97.9 ± 5.2
Stability, Short-Term (at Room Temperature for 4 h) (liver, spiked 1280 ng/mL): 102.9 ± 6.5
Stability, Three Freeze–Thaw Cycles (liver, spiked 1280 ng/mL): 95.1 ± 9.2
Stability, Autosampler 4 °C for 24 h (lung, spiked 3 ng/mL): 102.5 ± 9.3
Stability, Long-Term (at −80 °C for 30 Days) (lung, spiked 3 ng/mL): 95.6 ± 4.9
Stability, Short-Term (at Room Temperature for 4 h) (lung, spiked 3 ng/mL): 108.7 ± 5.1
Stability, Three Freeze–Thaw Cycles (lung, spiked 3 ng/mL): 95.9 ± 7.2
Stability, Autosampler 4 °C for 24 h (lung, spiked 40 ng/mL): 99.3 ± 6.9
Stability, Long-Term (at −80 °C for 30 Days) (lung, spiked 40 ng/mL): 106.7 ± 8.8
Stability, Short-Term (at Room Temperature for 4 h) (lung, spiked 40 ng/mL): 103.1 ± 3.3
Stability, Three Freeze–Thaw Cycles (lung, spiked 40 ng/mL): 86.0 ± 4.2
Stability, Autosampler 4 °C for 24 h (lung, spiked 1280 ng/mL): 98.5 ±3.1
Stability, Long-Term (at −80 °C for 30 Days) (lung, spiked 1280 ng/mL): 96.4 ± 4.8
Stability, Short-Term (at Room Temperature for 4 h) (lung, spiked 1280 ng/mL): 101.2 ± 2.9
Stability, Three Freeze–Thaw Cycles (lung, spiked 1280 ng/mL): 91.4 ± 5.9
Stability, Autosampler 4 °C for 24 h (plasma, spiked 3 ng/mL): 97.3 ± 5.5
Stability, Long-Term (at −80 °C for 30 Days) (plasma, spiked 3 ng/mL): 90.5 ± 6.7
Stability, Short-Term (at Room Temperature for 4 h) (plasma, spiked 3 ng/mL): 103.9 ± 8.0
Stability, Three Freeze–Thaw Cycles (plasma, spiked 3 ng/mL): 106.8 ± 8.8
Stability, Autosampler 4 °C for 24 h (plasma, spiked 40 ng/mL): 96.6 ± 6.3
Stability, Long-Term (at −80 °C for 30 Days) (plasma, spiked 40 ng/mL): 93.6 ± 8.2
Stability, Short-Term (at Room Temperature for 4 h) (plasma, spiked 40 ng/mL): 100.1 ± 4.1
Stability, Three Freeze–Thaw Cycles (plasma, spiked 40 ng/mL): 95.3 ± 8.3
Stability, Autosampler 4 °C for 24 h (plasma, spiked 1280 ng/mL): 98.3 ± 2.9
Stability, Long-Term (at −80 °C for 30 Days) (plasma, spiked 1280 ng/mL): 95.8 ± 8.4
Stability, Short-Term (at Room Temperature for 4 h) (plasma, spiked 1280 ng/mL): 97.8 ± 4.1
Stability, Three Freeze–Thaw Cycles (plasma, spiked 1280 ng/mL): 110.6 ± 5.6
stability during processing procedures (room temperature for 4 h and autosampler for 24 h, deviation in concentration within ±15% from nominal values): stable
Stability, Autosampler 4 °C for 24 h (spleen, spiked 3 ng/mL): 103.8 ± 8.5
Stability, Long-Term (at −80 °C for 30 Days) (spleen, spiked 3 ng/mL): 89.5 ± 8.9
Stability, Short-Term (at Room Temperature for 4 h) (spleen, spiked 3 ng/mL): 96.2 ± 2.2
Stability, Three Freeze–Thaw Cycles (spleen, spiked 3 ng/mL): 98.4 ± 6.6
Stability, Autosampler 4 °C for 24 h (spleen, spiked 40 ng/mL): 105.8 ± 3.6
Stability, Long-Term (at −80 °C for 30 Days) (spleen, spiked 40 ng/mL): 102.9 ± 8.7
Stability, Short-Term (at Room Temperature for 4 h) (spleen, spiked 40 ng/mL): 100.6 ± 3.8
Stability, Three Freeze–Thaw Cycles (spleen, spiked 40 ng/mL): 112.2 ± 6.5
Stability, Autosampler 4 °C for 24 h (spleen, spiked 1280 ng/mL): 101.2 ± 4.2
Stability, Long-Term (at −80 °C for 30 Days) (spleen, spiked 1280 ng/mL): 104.1 ± 5.2
Stability, Short-Term (at Room Temperature for 4 h) (spleen, spiked 1280 ng/mL): 98.4 ± 2.1
Stability, Three Freeze–Thaw Cycles (spleen, spiked 1280 ng/mL): 92.4 ± 7.8
Stability, Autosampler 4 °C for 24 h (stomach, spiked 3 ng/mL): 87.5 ± 3.3
Stability, Long-Term (at −80 °C for 30 Days) (stomach, spiked 3 ng/mL): 92.6 ± 6.5
Stability, Short-Term (at Room Temperature for 4 h) (stomach, spiked 3 ng/mL): 100.6 ± 7.6
Stability, Three Freeze–Thaw Cycles (stomach, spiked 3 ng/mL): 103.2 ± 4.2
Stability, Autosampler 4 °C for 24 h (stomach, spiked 40 ng/mL): 104.8 ± 7.8
Stability, Long-Term (at −80 °C for 30 Days) (stomach, spiked 40 ng/mL): 95.6 ± 5.8
Stability, Short-Term (at Room Temperature for 4 h) (stomach, spiked 40 ng/mL): 99.0 ± 4.3
Stability, Three Freeze–Thaw Cycles (stomach, spiked 40 ng/mL): 114.8 ± 6.6
Stability, Autosampler 4 °C for 24 h (stomach, spiked 1280 ng/mL): 98.5 ± 2.6
Stability, Long-Term (at −80 °C for 30 Days) (stomach, spiked 1280 ng/mL): 94.1 ± 6.1
Stability, Short-Term (at Room Temperature for 4 h) (stomach, spiked 1280 ng/mL): 99.1 ± 4.2
Stability, Three Freeze–Thaw Cycles (stomach, spiked 1280 ng/mL): 97.7 ± 4.7
effect of storage on quantification (three freeze–thaw cycles and long-term storage (−80 °C for 30 days)): no effect on the quantification
